Results from ChEMBL document CHEMBL3745709, “Synthesis of novel ethyl 1-ethyl-6-fluoro-7-(fatty amido)-1,4-dihydro-4-oxoquinoline-3-carboxylate derivatives and their biological evaluation” (Bioorg Med Chem Lett, 2016).
In brackets after ≈: the same amount, converted by molar mass.

Columns and labels:
[1] = Cytotoxicity against human DU145 cells assessed as reduction in cell viability by MTT assay; format: functional, cell-based; conditions: DU-145
[2] = system: A549; assay: Cytotoxicity against human A549 cells assessed as reduction in cell viability by MTT assay; format: functional, cell-based
[3] = Cytotoxicity against human SKOV3 cells assessed as reduction in cell viability by MTT assay; format: functional, cell-based; conditions: SK-OV-3
[4] = system: MCF7; assay: Cytotoxicity against human MCF7 cells assessed as reduction in cell viability by MTT assay; format: functional, cell-based
[5] = Cytotoxicity against human IMR90 cells assessed as reduction in cell viability by MTT assay; format: cell-based; conditions: IMR-90
[6] = system: IMR-90; assay: Selectivity index, ratio of IC50 for human IMR90 cells to IC50 for human DU145 cells; format: functional
[7] = system: A549; assay: Selectivity index, ratio of IC50 for human IMR90 cells to IC50 for human A549 cells; format: functional
[8] = system: SK-OV-3; assay: Selectivity index, ratio of IC50 for human IMR90 cells to IC50 for human SKOV3 cells; format: functional
[9] = system: IMR-90; assay: Selectivity index, ratio of IC50 for human IMR90 cells to IC50 for human MCF7 cells; format: functional
[10] = Antioxidant activity assessed as DPPH free radical scavenging activity; format: physicochemical
[11] = system: Micrococcus luteus; assay: Antibacterial activity against Micrococcus luteus MTCC 2470 assessed as inhibition zone after 24 hrs at 30 degC by well diffusion method; format: functional; conditions: MTCC 2470, 24 h
[12] = system: Staphylococcus aureus; assay: Antibacterial activity against Staphylococcus aureus MTCC 96 […] after 24 hrs at 30 degC by well diffusion method; format: functional; conditions: MTCC 96, 24 h
[13] = system: Staphylococcus aureus; assay: Antibacterial activity against Staphylococcus aureus MLS-16 MTCC 2940 assessed as inhibition zone after 24 hrs at 30 degC by well diffusion method; format: functional; conditions: MLS-16 MTCC 2940, 24 h
[14] = system: Bacillus subtilis; assay: Antibacterial activity against Bacillus subtilis MTCC 121 assessed as inhibition zone after 24 hrs at 30 degC by well diffusion method; format: functional; conditions: MTCC 121, 24 h
[15] = system: Escherichia coli; assay: Antibacterial activity against Escherichia coli MTCC 739 assessed as inhibition zone after 24 hrs at 30 degC by well diffusion method; format: functional; conditions: MTCC 739, 24 h
[16] = system: Pseudomonas aeruginosa; assay: Antibacterial activity against Pseudomonas aeruginosa MTCC 2453 assessed as inhibition zone after 24 hrs at 30 degC by well diffusion method; format: functional; conditions: MTCC 2453, 24 h
[17] = system: Raoultella planticola; assay: Antibacterial activity against Klebsiella planticola MTCC 530 assessed as inhibition zone after 24 hrs at 30 degC by well diffusion method; format: functional; conditions: MTCC 530, 24 h
[18] = system: Candida albicans; assay: Antifungal activity against Candida albicans MTCC 3017 […] after 24 hrs at 30 degC by well diffusion method; format: functional; conditions: MTCC 3017, 24 h

Row | EC50 [10] | MIC [11] [µg/mL] | MIC [12] [µg/mL] | MIC [13] [µg/mL] | MIC [14] [µg/mL] | MIC [15] [µg/mL] | MIC [16] [µg/mL] | MIC [18] [µg/mL] | SMILES | IC50 [1] [µM] | IC50 [2] [µM] | IC50 [3] [µM] | IC50 [4] [µM] | IC50 [5] [µM] | Ratio IC50 [6] | Ratio IC50 [7] | Ratio IC50 [8] | Ratio IC50 [9] | MIC [17] [µg/mL]
1 | 286 µg/mL (≈ 585 µM) | > 125 | > 125 | > 125 | > 125 | > 125 | > 125 | > 125 | CCCCCCCCCCCCCC(=O)Nc1cc2c(cc1F)c(=O)c(C(=O)OCC)cn2CC | 10.4 | 9.6 | 8.2 | 9.1 | 86.4 | 8.3 | 9 | 10.5 | 9.4 | > 125
2 | 109.8 µg/mL (≈ 271 µM) | > 125 | > 125 | > 125 | > 125 | > 125 | > 125 | > 125 | CCCCCCCC(=O)Nc1cc2c(cc1F)c(=O)c(C(=O)OCC)cn2CC | 10.1 | 9.2 | 8.1 | 7.9 | 91.2 | 9 | 9.9 | 11.2 | 11.5 | > 125
3 | Not Active | > 125 | > 125 | > 125 | > 125 | > 125 | > 125 | > 125 | CCCCCCCCCCCC(=O)Nc1cc2c(cc1F)c(=O)c(C(=O)OCC)cn2CC | 12.1 | 10.3 | 9.8 | 11.2 | 79.8 | 6.6 | 7.7 | 8.1 | 7.1 | > 125
4 | 798.8 µg/mL (≈ 1470 µM) | > 125 | > 125 | > 125 | > 125 | > 125 | > 125 | > 125 | CCCCCCCCCCCCCCCCCC(=O)Nc1cc2c(cc1F)c(=O)c(C(=O)OCC)cn2CC | 37.1 | 32.6 | 35.2 | 28.4 | – | – | – | – | – | > 125
5 | Not Active | > 125 | > 125 | > 125 | > 125 | > 125 | > 125 | > 125 | CCCCCCCCCCCCCCCC(=O)Nc1cc2c(cc1F)c(=O)c(C(=O)OCC)cn2CC | 25.2 | 24.3 | 17.8 | 18.6 | – | – | – | – | – | > 125
6 | 28.5 µg/mL (≈ 129 µM) | – | – | – | – | – | – | – | Cc1cc(C(C)(C)C)c(O)c(C(C)(C)C)c1 [BUTYLATED HYDROXYTOLUENE] | – | – | – | – | – | – | – | – | – | –
